{"source": "paper PMC5291098", "about": "“Molecular mutagenesis of ppGpp: turning a RelA activator into an inhibitor” (Scientific Reports, 2017)", "molecular_target": "T1, E. coli RelA (Escherichia coli, UniProt P0AG20)", "T1 construct": "made in house", "T1 sequence (P0AG20 whole entry)": "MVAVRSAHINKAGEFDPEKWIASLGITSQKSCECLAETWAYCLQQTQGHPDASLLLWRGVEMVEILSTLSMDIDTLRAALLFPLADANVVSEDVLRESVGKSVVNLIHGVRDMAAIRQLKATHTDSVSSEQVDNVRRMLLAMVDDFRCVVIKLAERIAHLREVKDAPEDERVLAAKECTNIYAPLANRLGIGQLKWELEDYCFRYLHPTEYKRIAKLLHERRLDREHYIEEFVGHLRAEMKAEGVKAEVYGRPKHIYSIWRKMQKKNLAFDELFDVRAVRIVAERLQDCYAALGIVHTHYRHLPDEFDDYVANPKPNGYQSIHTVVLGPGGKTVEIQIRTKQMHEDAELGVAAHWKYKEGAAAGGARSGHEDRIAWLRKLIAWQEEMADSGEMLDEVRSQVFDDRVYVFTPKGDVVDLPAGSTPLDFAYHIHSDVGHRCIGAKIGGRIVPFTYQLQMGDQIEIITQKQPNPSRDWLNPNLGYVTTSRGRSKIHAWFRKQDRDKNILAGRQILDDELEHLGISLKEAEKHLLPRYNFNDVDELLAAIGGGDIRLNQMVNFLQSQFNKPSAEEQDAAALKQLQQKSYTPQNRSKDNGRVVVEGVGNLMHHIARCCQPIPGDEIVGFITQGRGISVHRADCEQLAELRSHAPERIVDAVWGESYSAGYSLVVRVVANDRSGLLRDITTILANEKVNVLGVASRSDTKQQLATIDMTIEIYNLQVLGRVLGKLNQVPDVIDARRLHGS", "experiment": "Inhibition of [3H]GDP to [3H]ppGpp conversion by E. coli RelA activated by vacant 70S ribosomes and 100 μM ppGpp", "assay_type": "biochemical", "conditions": "for IC50: 30 nM RelA, 0.5 μM vacant 70S, 100 μM ppGpp; for nHill (Hill coefficient of the titration fit): Supplementary Table 1, 4-parameter logistic model; for Activation of RelA's synthetic activity (in words): ppGpp up to 100 μM, ppApp 50 µM-1 mM, thio-ppGpp 100 µM (Supplementary Figure 1); for Activity against RelA (in words) / Inhibitory effect on RelA (in words): RelA:70S:ppGpp system; for Inhibitory effect on RelA (in words): concentrations up to 1 mM", "description": "For the initial characterization of compounds, we followed the inhibition of [^3H] GDP conversion to [^3H] ppGpp catalyzed by E. coli RelA in a simplified system in which RelA’s activity was induced by vacant 70S ribosomes and 100 μM of ppGpp[15]. Unlabeled ppGpp was added to reaction mixtures in order to linearize the kinetics of [^3H] ppGpp synthesis due to an activating effect on the RelA enzyme. We used a targeted library of 69 nucleotides belonging to several structural classes: ‘true’ ppGpp analogues; Relacin and its derivatives; pyrrolidine, azetidine, piperidine and acyclic phosphonates. Chemical structures of tested compounds and titrations in the RelA:70S:ppGpp system are presented in Supplementary Table 1.\nDetailed description of experimental procedures can be found in Supplementary Text. Biochemical assays utilize in vitro translation[58] and stringent response[15] systems from E. coli purified components. Experiments were performed in HEPES:Polymix[58] buffer with either 5 (for enzymatically assembled initiation complexes) or 15 mM (for vacant 70 S, as well as non-enzymatically assembled programmed ribosomes) Mg^2+. Expression and purification of E. faecalis RelQ was performed as per Gaca (2015) and colleagues. GTPase and ppGpp synthesis were followed using TLC separation and radiochemical detection of ^3H-labelled nucleotides. Multiple round in vitro transcription assays were performed as per Bernardo et al.[49] with minor modifications. Inhibition efficiency (IC50) was calculated using 4-parameter logistic model (Hill equation) as per Sebaugh[60].\nThin layer chromatography (TLC) analysis of nucleotide mixtures\nBoth EF-G GTPase reaction and ppGpp synthesis by RelA were followed by TLC analysis followed by scintillation counting according to Mechold and colleagues, with modifications1. Time points from the reaction mixtures (5 μl, see below for details) were quenched by addition 4 μl 70% formic acid supplemented with a cold nucleotide standard used for UV-shadowing (10 mM GDP and 10 mM GTP) and spotted on PEI-TLC plates (Macherey-Nagel). TLC was run in buffer, plates dried, cut into sections guided by UV-shadowing and 3H radioactivity was quantified by scintillation counting in Optisafe-3 (Fisher) scintillation cocktail on Perkin Elmer Tricarb 2810TR counter. Conversion of substrate to product was quantified as described in Shyp et al. (2012)2.\nEnzymatic assays with E. coli RelA\nScreening: all experiments were performed in HEPES:Polymix, Mg2+ of 5 mM, 37 […]\nμM ppGpp was pre-incubated at 37° C for 2 min and then reaction started by addition of 1 mM ATP, time points (5 μl) taken, quenched with formic acid and analyzed by TLC. Inhibition efficiency (IC50) was calculated using 4-parameter logistic model (Hill equation) as per Sebaugh (2011)3. […]", "key": {"[1]": {"conditions": "0.3 mM [3H]GDP, 1 mM ATP, read-out: IC50"}, "[2]": {"conditions": "5 mM Mg2+, 37 °C, no unit beside the value, titration axis in mM, read-out: IC50 (Supplementary Table 1, example titration)"}}, "note": "Like-named read-outs stand apart in the source and are kept apart here.", "data": [{"smiles": "Nc1nc2c(ncn2C2OC(COP(=O)(O)OP(=O)(O)O)C(OP(=O)(O)OP(=O)(O)O)C2O)c(=S)[nH]1", "note": "(stereo not shown) [6-thio-ppGpp, reference compound]", "values": [{"measurement": "IC50", "setting": "[1]", "value": "21.3 ± 2.1", "unit": "µM"}, {"measurement": "IC50", "setting": "5 mM Mg2+, 37 °C, no unit beside the value, titration axis in µM, read-out: IC50 (Supplementary Table 1, example titration)", "value": "21.2 ± 2.08", "unit": "µM"}, {"measurement": "nHill (Hill coefficient of the titration fit)", "value": "1.86 ± 0.29"}, {"measurement": "Activation of RelA's synthetic activity (in words)", "value": "neither ppApp nor 6-thio-ppGpp activate"}, {"measurement": "Activation of RelA's synthetic activity (in words)", "setting": "listed as thio-ppGpp", "value": "do not activate"}]}, {"smiles": "CC(C)C(=O)Nc1nc2c(ncn2[C@@H]2O[C@H](COP(=O)(O)OCP(=O)(O)O)[C@@H](OP(=O)(O)OCP(=O)(O)O)[C@H]2OC2CCCCO2)c(=O)[nH]1", "note": "(stereo partly shown) [DR-4238, 2-N-isobutyryl-2’-tetrahydropyranylguanosine 3’,5’-di(phosphonomethoxyphosphate)]", "values": [{"measurement": "IC50", "setting": "[2]", "value": "100 ± 6", "unit": "µM"}, {"measurement": "nHill (Hill coefficient of the titration fit)", "value": "1.85 ± 0.2"}]}, {"smiles": "CC(C)C(=O)Nc1nc2c(ncn2C2OC(COP(=O)(O)OCP(=O)(O)O)C(OP(=O)(O)OCP(=O)(O)O)C2O)c(=O)[nH]1", "note": "(stereo not shown) [DR-4239, 2-N-isobutyryl-guanosine 3’,5’-di(phosphonomethoxyphosphate)]", "values": [{"measurement": "IC50", "setting": "[1]", "value": "101 ± 8", "unit": "µM"}, {"measurement": "IC50", "setting": "[2]", "value": "102 ± 8", "unit": "µM"}, {"measurement": "nHill (Hill coefficient of the titration fit)", "value": "2.13 ± 0.3"}]}, {"smiles": "CC(C)OP(=O)(O)CN1CC[C@H](n2cnc3c(=O)[nH]c(N)nc32)C1", "note": "[DR-4518]", "values": [{"measurement": "IC50", "setting": "[1]", "value": "1710 ± 660", "unit": "µM"}]}, {"smiles": "Nc1nc2c(ncn2[C@H]2CCN(C(=O)P(=O)(O)O)C2)c(=O)[nH]1", "note": "[DR-4520]", "values": [{"measurement": "IC50", "setting": "[1]", "value": "200 ± 22", "unit": "µM"}, {"measurement": "nHill (Hill coefficient of the titration fit)", "value": "1.46 ± 0.2"}]}, {"smiles": "Nc1nc2c(ncn2CCNCC(=O)P(=O)(O)O)c(=O)[nH]1", "note": "[DR-5164]", "values": [{"measurement": "IC50", "setting": "[1]", "value": "1400 ± 120", "unit": "µM"}]}, {"smiles": "Nc1nc2c(ncn2[C@@H]2CCN(C(=O)P(=O)(O)O)C2)c(=O)[nH]1", "note": "[DR-5267B]", "values": [{"measurement": "IC50", "setting": "[1]", "value": "652 ± 194", "unit": "µM"}, {"measurement": "nHill (Hill coefficient of the titration fit)", "value": "0.95 ± 0.26"}]}, {"smiles": "Nc1nc2c(ncn2C2CC(OC(=O)NCC(=O)NCC(=O)O)C(COC(=O)NCC(=O)NCC(=O)O)O2)c(=S)[nH]1", "note": "(stereo not shown) [DR-5732]", "values": [{"measurement": "Activity against RelA (in words)", "value": "virtually no activity"}, {"measurement": "Activity against RelA (in words)", "setting": "listed as thio-di-iBu-Relacin", "value": "complete inactivation"}]}, {"smiles": "Nc1nc2c(ncn2C2CC(OCP(=O)(O)O)C(COCP(=O)(O)O)O2)c(=O)[nH]1", "note": "(stereo not shown) [DR-5799C]", "values": [{"measurement": "IC50", "setting": "[1]", "value": "515 ± 392", "unit": "µM"}, {"measurement": "nHill (Hill coefficient of the titration fit)", "value": "2.2 ± 2.5"}]}, {"smiles": "Nc1ncnc2c1ncn2C1CCN(C(=O)P(=O)(O)O)CC1", "note": "[DR-5994A]", "values": [{"measurement": "IC50", "setting": "[2]", "value": "300 ± 30", "unit": "µM"}, {"measurement": "nHill (Hill coefficient of the titration fit)", "value": "1 ± 0.088"}]}, {"smiles": "Nc1nc2c(ncn2C2OC(COCP(=O)(O)O)C(OCP(=O)(O)O)C2O)c(=O)[nH]1", "note": "(stereo not shown) [DR-6331]", "values": [{"measurement": "IC50", "setting": "[1]", "value": "76 ± 6", "unit": "µM"}, {"measurement": "nHill (Hill coefficient of the titration fit)", "value": "1.5 ± 0.2"}]}, {"smiles": "Nc1nc2c(ncn2C2CCN(C(=O)CP(=O)(O)O)CC2)c(=O)[nH]1", "note": "[DR-M011]", "values": [{"measurement": "IC50", "setting": "[1]", "value": "234 ± 67", "unit": "µM"}, {"measurement": "IC50", "setting": "[2]", "value": "230 ± 70", "unit": "µM"}, {"measurement": "nHill (Hill coefficient of the titration fit)", "value": "0.62 ± 0.13"}]}, {"smiles": "NC(=O)C1=CN([C@@H]2O[C@H](COP(=O)(O)OP(=O)(O)OC[C@H]3O[C@@H](n4cnc5c(N)ncnc54)[C@H](O)[C@@H]3O)[C@@H](O)[C@H]2O)C=CC1", "note": "[NADH, reference compound]", "values": [{"measurement": "Inhibitory effect on RelA (in words)", "value": "None of the compounds showed any inhibitory effect"}]}, {"smiles": "NC(=O)C1=CN([C@@H]2O[C@H](COP(=O)(O)OP(=O)(O)OC[C@H]3O[C@@H](n4cnc5c(N)ncnc54)[C@H](OP(=O)(O)O)[C@@H]3O)[C@@H](O)[C@H]2O)C=CC1", "note": "[NADPH, reference compound]", "values": [{"measurement": "Inhibitory effect on RelA (in words)", "value": "None of the compounds showed any inhibitory effect"}]}, {"smiles": "Nc1ncnc2c1ncn2[C@@H]1O[C@@H]2COP(=O)(O)O[C@H]3[C@@H](O)[C@H](n4cnc5c(N)ncnc54)O[C@@H]3COP(=O)(O)O[C@H]2[C@H]1O", "note": "[c-di-AMP, reference compound]", "values": [{"measurement": "Inhibitory effect on RelA (in words)", "value": "None of the compounds showed any inhibitory effect"}]}, {"smiles": "Nc1nc2c(ncn2[C@@H]2O[C@@H]3COP(=O)(O)O[C@H]4[C@@H](O)[C@H](n5cnc6c(N)ncnc65)O[C@@H]4COP(=O)(O)O[C@H]3[C@H]2O)c(=O)[nH]1", "note": "[c-di-GAMP, reference compound]", "values": [{"measurement": "Inhibitory effect on RelA (in words)", "value": "None of the compounds showed any inhibitory effect"}]}, {"smiles": "Nc1nc2c(ncn2[C@@H]2O[C@@H]3COP(=O)(O)O[C@H]4[C@@H](O)[C@H](n5cnc6c(=O)[nH]c(N)nc65)O[C@@H]4COP(=O)(O)O[C@H]3[C@H]2O)c(=O)[nH]1", "note": "[c-di-GMP, reference compound]", "values": [{"measurement": "Inhibitory effect on RelA (in words)", "value": "None of the compounds showed any inhibitory effect"}]}, {"smiles": "Nc1nc2c(ncn2C2CC(OC(=O)NCC(=O)NCC(=O)O)C(COC(=O)NCC(=O)NCC(=O)O)O2)c(=O)[nH]1", "note": "(stereo not shown) [di-iBu-Relacin]", "values": [{"measurement": "Activity against RelA (in words)", "value": "compromises its activity against RelA"}]}, {"smiles": "Nc1nc2c(ncn2C2OC(COP(=O)(O)OP(=O)(O)O)C(OP(=O)(O)OP(=O)(O)O)C2O)c(=O)[nH]1", "note": "(stereo not shown) [ppGpp, guanosine tetraphosphate]", "values": [{"measurement": "IC50", "setting": "[1]", "value": "720 ± 440", "unit": "µM"}]}]}
